Experimental data: the supplement of paper PMC11061612

How the values were obtained:
Experiment in all cases: combination Emax (second highest fraction inhibited in the dose matrix, 72 h); higher = more inhibition; extreme values may be limits of the assay
PEO1 (Ovarian Carcinoma) = test system: PEO1 (Ovarian Carcinoma)
Method in brief: (§1)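 Cell lines in DMEM/F12 or RPMI with 10% FBS were plated in 1536-well plates, held 24 hours at 37°C, 5% CO2, then given two-drug dose matrices for 72 hours (DMSO typically 0.2%). Viability was read by CellTiter-Glo 2.0 luminescence and scaled as inhibition from 0 (vehicle wells) to 1 (blank wells). Combination Emax is the second-highest inhibition in the matrix; Bliss excess is observed combination effect minus expected EA + EB − EA·EB, EA and EB being single-agent effects.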

[1] = test system: A2780 (Ovarian Carcinoma)
Method in brief: as §1

769-P (Kidney Carcinoma) = test system: 769-P (Kidney Carcinoma)
Method in brief: as §1

[2] = test system: MHH-ES-1 (Ewing's Sarcoma)
Method in brief: as §1

[3] = test system: SK-HEP-1 (Hepatocellular Carcinoma)
Method in brief: as §1

EB2 (Burkitt's Lymphoma) = test system: EB2 (Burkitt's Lymphoma)
Method in brief: as §1

WM1552C (Melanoma) = test system: WM1552C (Melanoma)
Method in brief: as §1

[4] = test system: LU-165 (Small Cell Lung Carcinoma)
Method in brief: as §1

[5] = test system: DU-4475 (Breast Carcinoma)
Method in brief: as §1

[6] = test system: HCC1428 (Breast Carcinoma)
Method in brief: as §1

Row | SMILES | combination Emax (PEO1 (Ovarian Carcinoma)) | combination Emax [1] | combination Emax (769-P (Kidney Carcinoma)) | combination Emax [2] | combination Emax [3] | combination Emax (EB2 (Burkitt's Lymphoma)) | combination Emax (WM1552C (Melanoma)) | combination Emax [4] | combination Emax [5] | combination Emax [6]
1 | O=C(c1cc(Cc2n[nH]c(=O)c3ccccc23)ccc1F)N1CCN(C(=O)C2CC2)CC1 [Olaparib] + CN(CC[C@H](CSC1=CC=CC=C1)NC2=C(C=C(C=C2)S(=O)(=O)NC(=O)C3=CC=C(C=C3)N4CCC(CC4)[C@H](C5=CC=CC=C5C6=CC=C(C=C6)Cl)O)S(=O)(=O)C(F)(F)F)CCO [AZD4320] (first compound max 10 µM, 7x7, partner max 1 µM) | 0.242 | 0.511 | 0.678 | 0.952 | 0.911 | 0.13 | 0.484 | 0.473 | – | –
2 | C[C@@H]1COCCN1c1cc(C2([S@](C)(=N)=O)CC2)nc(-c2ccnc3[nH]ccc23)n1 [AZD6738] + Nc1ccn([C@@H]2O[C@H](CO)[C@@H](O)C2(F)F)c(=O)n1 [Gemcitabine] (first compound max 10 µM, 7x7, partner max 0.3 µM) | 0.696 | 0.95 | 0.865 | 0.995 | 0.645 | 0.942 | 0.868 | 0.551 | – | –
3 | O=C(c1cc(Cc2n[nH]c(=O)c3ccccc23)ccc1F)N1CCN(C(=O)C2CC2)CC1 [Olaparib] + CC1(C)CCC(CN2CCN(c3ccc(C(=O)NS(=O)(=O)c4ccc(NCC5CCOCC5)c([N+](=O)[O-])c4)c(Oc4cnc5[nH]ccc5c4)c3)CC2)=C(c2ccc(Cl)cc2)C1 [Venetoclax] (first compound max 10 µM, 7x7, partner max 1 µM) | 0.146 | 0.462 | 0.284 | 0.86 | 0.73 | 0.242 | 0.319 | 0.207 | – | –
4 | CS(=O)(=O)CCNCc1ccc(-c2ccc3ncnc(Nc4ccc(OCc5cccc(F)c5)c(Cl)c4)c3c2)o1 [Lapatinib] + NC1(c2ccc(-c3nc4ccn5c(=O)[nH]nc5c4cc3-c3ccccc3)cc2)CCC1 [MK-2206] (first compound max 10 µM, 7x7, partner max 10 µM) | 0.348 | 0.909 | 0.978 | 0.905 | 0.87 | 0.834 | 0.767 | 0.453 | 0.983 | 0.308
5 | C[C@@H](Nc1cc(F)cc(F)c1)c1cc(C(=O)N(C)C)cc2c(=O)cc(N3CCOCC3)oc12 [AZD8186] + CC(=O)c1c(C)c2cnc(Nc3ccc(N4CCNCC4)cn3)nc2n(C2CCCC2)c1=O [Palbociclib] (first compound max 10 µM, 7x7, partner max 10 µM) | 0.454 | 0.835 | 0.755 | 0.602 | 0.578 | 0.582 | 0.352 | 0.31 | – | –
6 | CS(=O)(=O)CCNCc1ccc(-c2ccc3ncnc(Nc4ccc(OCc5cccc(F)c5)c(Cl)c4)c3c2)o1 [Lapatinib] + Cn1cnc2c(F)c(Nc3ccc(Br)cc3Cl)c(C(=O)NOCCO)cc21 [Selumetinib] (first compound max 10 µM, 7x7, partner max 10 µM) | 0.52 | 0.684 | 0.945 | 0.401 | 0.133 | 0.324 | 0.444 | 0.24 | – | –
7 | Cc1c2c(nn1C)CSCc1cc(n(C)n1)CSc1cc(c3ccccc3c1)OCCCc1c(C(=O)O)n(C)c3c-2c(Cl)ccc13 [AZD5991] + CC(=O)O[C@H]1C(=O)[C@@]2(C)[C@H]([C@H](OC(=O)c3ccccc3)[C@]3(O)C[C@H](OC(=O)[C@H](O)[C@@H](NC(=O)c4ccccc4)c4ccccc4)C(C)=C1C3(C)C)[C@]1(OC(C)=O)CO[C@@H]1C[C@@H]2O [Paclitaxel] (first compound max 1 µM, 7x7, partner max 3 µM) | 0.762 | 1 | 0.789 | 0.965 | 0.857 | 0.666 | 0.989 | 0.36 | – | –
8 | O=C(c1cc(Cc2n[nH]c(=O)c3ccccc23)ccc1F)N1CCN(C(=O)C2CC2)CC1 [Olaparib] + COc1nnc2ccc(N3CCC(c4ccc(OCCN5CCN(C)C(=O)[C@H]5C)cc4)CC3)nn12 [AZD5153] (first compound max 10 µM, 7x7, partner max 1 µM) | 0.361 | 0.774 | 0.709 | 0.905 | 0.752 | 0.484 | 0.376 | 0.373 | – | –
9 | C=CCn1c(=O)c2cnc(Nc3ccc(N4CCN(C)CC4)cc3)nc2n1-c1cccc(C(C)(C)O)n1 [AZD1775] + Nc1ccn([C@@H]2O[C@H](CO)[C@@H](O)C2(F)F)c(=O)n1 [Gemcitabine] (first compound max 1 µM, partner max 0.3 µM) | 0.65 | 0.963 | 0.868 | 0.983 | 0.514 | 0.942 | 0.72 | 0.508 | – | –
10 | C[C@@H](Oc1cc(-c2cnn(C3CCNCC3)c2)cnc1N)c1c(Cl)ccc(F)c1Cl [Crizotinib] + CC1=C(C(=CC=C1)Cl)NC(=O)C2=CN=C(S2)NC3=CC(=NC(=N3)C)N4CCN(CC4)CCO [Dasatinib] (first compound max 10 µM, 7x7, partner max 2 µM) | 0.532 | 0.882 | 0.961 | 0.77 | 0.433 | 0.591 | 0.959 | 0.469 | – | –
